Assay [1] is filed under the species Homo sapiens. In words: Residual activity of human PKBalpha at 1 uM relative to control.
Assay [2] addresses ALK tyrosine kinase receptor (Homo sapiens) (UniProt Q9UM73). In words: Inhibition of ALK at 1 uM relative to control; values are per cent of control.
Assay [3] deals with Tyrosine-protein kinase ABL1 (Homo sapiens), P00519 [T315I]. In words: Residual activity of human Abl T315I mutant at 1 uM relative to control.
In assay [4] the target is Rho-associated protein kinase 2 (Rattus norvegicus) (UniProt Q62868). In words: Residual activity of rat ROCK2 at 1 uM relative to control.
Rho-associated protein kinase 2 (Rattus norvegicus), sequence (Q62868 whole entry, looked up): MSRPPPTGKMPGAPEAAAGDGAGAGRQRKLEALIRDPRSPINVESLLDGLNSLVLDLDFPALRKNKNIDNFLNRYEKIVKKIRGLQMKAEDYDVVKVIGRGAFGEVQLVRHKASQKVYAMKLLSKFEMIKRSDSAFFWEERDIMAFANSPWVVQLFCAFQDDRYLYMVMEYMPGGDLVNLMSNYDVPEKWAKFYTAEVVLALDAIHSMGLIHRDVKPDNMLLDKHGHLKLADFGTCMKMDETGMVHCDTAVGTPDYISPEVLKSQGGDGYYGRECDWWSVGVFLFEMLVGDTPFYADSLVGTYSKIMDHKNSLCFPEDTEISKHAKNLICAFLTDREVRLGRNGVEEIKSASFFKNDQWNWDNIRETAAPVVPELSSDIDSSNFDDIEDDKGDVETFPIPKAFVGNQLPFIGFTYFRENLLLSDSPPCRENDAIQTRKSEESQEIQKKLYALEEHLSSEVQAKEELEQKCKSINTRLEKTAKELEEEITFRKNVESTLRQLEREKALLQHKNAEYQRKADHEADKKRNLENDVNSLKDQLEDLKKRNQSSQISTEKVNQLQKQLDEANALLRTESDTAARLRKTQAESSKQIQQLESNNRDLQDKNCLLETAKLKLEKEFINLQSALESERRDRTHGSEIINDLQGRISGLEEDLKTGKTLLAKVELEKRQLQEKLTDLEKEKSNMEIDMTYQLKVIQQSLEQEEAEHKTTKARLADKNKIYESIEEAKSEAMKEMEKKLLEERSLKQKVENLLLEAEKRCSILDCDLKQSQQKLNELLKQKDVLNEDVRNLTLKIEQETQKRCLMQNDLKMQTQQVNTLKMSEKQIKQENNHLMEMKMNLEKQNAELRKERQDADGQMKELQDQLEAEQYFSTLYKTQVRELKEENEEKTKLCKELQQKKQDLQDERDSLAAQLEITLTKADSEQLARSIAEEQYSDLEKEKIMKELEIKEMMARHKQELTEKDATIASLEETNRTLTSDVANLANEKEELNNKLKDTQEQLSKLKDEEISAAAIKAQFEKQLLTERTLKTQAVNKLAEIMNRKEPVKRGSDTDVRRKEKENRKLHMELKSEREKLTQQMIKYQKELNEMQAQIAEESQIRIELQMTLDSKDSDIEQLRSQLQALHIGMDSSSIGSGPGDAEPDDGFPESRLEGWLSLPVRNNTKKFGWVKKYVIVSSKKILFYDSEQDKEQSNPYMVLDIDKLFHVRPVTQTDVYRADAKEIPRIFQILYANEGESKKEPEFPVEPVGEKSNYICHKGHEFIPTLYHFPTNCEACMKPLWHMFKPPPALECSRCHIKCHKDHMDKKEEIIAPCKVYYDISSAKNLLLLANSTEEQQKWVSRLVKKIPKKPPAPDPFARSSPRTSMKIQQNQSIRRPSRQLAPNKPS
The species entered for another assay is Mus musculus. In words: Inhibition of mouse MAPK2 at 1 uM relative to control; values are per cent of control.
The target in assay [5] is T1, Aurora kinase A (Homo sapiens) (UniProt O14965).
T1 sequence (whole entry): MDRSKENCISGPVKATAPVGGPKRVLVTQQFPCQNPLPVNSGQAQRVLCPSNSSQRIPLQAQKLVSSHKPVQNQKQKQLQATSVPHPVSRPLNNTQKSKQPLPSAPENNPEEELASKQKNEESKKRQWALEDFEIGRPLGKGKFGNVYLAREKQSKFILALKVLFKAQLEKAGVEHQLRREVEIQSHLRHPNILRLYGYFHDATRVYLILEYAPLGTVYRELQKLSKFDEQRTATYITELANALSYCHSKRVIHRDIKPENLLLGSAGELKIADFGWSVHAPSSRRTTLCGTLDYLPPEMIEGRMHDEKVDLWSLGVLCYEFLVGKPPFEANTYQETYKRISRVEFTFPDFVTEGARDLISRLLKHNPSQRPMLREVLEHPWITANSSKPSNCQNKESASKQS
In words: Residual activity of human Aurora A at 1 uM relative to control.

In assay [6] the target is Platelet-derived growth factor receptor alpha (Homo sapiens) (UniProt P16234). In words: Inhibition of human PDGFRalpha at 1 uM relative to control; values are per cent of control.
Assay [7] concerns the target Ribosomal protein S6 kinase alpha-5 (Homo sapiens, UniProt O75582). In words: Inhibition of human MSK1 at 1 uM relative to control; values are per cent of control.
For assay [8], the target named is Ribosomal protein S6 kinase alpha-1 (Rattus norvegicus) (UniProt Q63531). In words: Inhibition of rat Rsk1 at 1 uM relative to control; values are per cent of control.
Assay [9] deals with Tyrosine-protein kinase CSK (Homo sapiens) (UniProt P41240). In words: Inhibition of human CSK at 1 uM relative to control; values are per cent of control.
Assay [10] concerns the target Hepatocyte growth factor receptor (Homo sapiens) (UniProt P08581). In words: Inhibition of human Met at 1 uM relative to control; values are per cent of control.
Assay [11] concerns the target Proto-oncogene tyrosine-protein kinase Src (Homo sapiens) (UniProt P12931). In words: Residual activity of human cSRC at 1 uM relative to control.
Assay [12] has as its target Glycogen synthase kinase-3 beta (Homo sapiens, UniProt P49841). In words: Inhibition of human recombinant GSK3-beta.
Assay [13] has as its target T2, Dual specificity mitogen-activated protein kinase kinase 7 (Homo sapiens) (UniProt O14733).
T2 sequence (whole entry): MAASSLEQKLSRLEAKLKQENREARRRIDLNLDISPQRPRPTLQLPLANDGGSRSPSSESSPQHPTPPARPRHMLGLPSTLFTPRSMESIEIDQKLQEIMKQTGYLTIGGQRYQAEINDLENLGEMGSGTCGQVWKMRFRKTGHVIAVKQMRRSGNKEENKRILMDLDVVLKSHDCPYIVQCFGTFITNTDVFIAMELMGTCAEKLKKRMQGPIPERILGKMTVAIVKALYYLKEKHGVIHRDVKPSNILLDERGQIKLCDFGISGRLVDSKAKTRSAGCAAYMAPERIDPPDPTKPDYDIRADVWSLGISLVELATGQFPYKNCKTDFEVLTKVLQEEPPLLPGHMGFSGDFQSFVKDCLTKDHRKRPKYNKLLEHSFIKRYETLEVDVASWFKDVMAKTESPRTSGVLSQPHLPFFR
In words: Inhibition of human MKK7-beta at 1 uM relative to control; values are per cent of control.

Assay [14] concerns the target RAC-beta serine/threonine-protein kinase (Homo sapiens) (UniProt P31751). In words: Residual activity of human PKBbeta at 1 uM relative to control.
The target in assay [15] is Ribosomal protein S6 kinase alpha-1 (Homo sapiens, UniProt Q15418). In words: Inhibition of human Rsk1 at 1 uM relative to control; values are per cent of control.
The species entered for assay [16] is Homo sapiens. In words: Residual activity of human PAR1B-alpha at 1 uM relative to control.
Assay [17] addresses Glycogen synthase kinase-3 alpha (Homo sapiens) (UniProt P49840). In words: Inhibition of human GSK3alpha relative to control; values are per cent of control.
The target in assay [18] is Fibroblast growth factor receptor 3 (Homo sapiens) (UniProt P22607). In words: Residual activity of human FGFR3 at 1 uM relative to control.
For assay [19], the target named is Serine/threonine-protein kinase N2 (Homo sapiens) (UniProt Q16513). In words: Residual activity of human PRK2 at 1 uM relative to control.
Serine/threonine-protein kinase N2 (Homo sapiens), sequence (Q16513 whole entry, looked up): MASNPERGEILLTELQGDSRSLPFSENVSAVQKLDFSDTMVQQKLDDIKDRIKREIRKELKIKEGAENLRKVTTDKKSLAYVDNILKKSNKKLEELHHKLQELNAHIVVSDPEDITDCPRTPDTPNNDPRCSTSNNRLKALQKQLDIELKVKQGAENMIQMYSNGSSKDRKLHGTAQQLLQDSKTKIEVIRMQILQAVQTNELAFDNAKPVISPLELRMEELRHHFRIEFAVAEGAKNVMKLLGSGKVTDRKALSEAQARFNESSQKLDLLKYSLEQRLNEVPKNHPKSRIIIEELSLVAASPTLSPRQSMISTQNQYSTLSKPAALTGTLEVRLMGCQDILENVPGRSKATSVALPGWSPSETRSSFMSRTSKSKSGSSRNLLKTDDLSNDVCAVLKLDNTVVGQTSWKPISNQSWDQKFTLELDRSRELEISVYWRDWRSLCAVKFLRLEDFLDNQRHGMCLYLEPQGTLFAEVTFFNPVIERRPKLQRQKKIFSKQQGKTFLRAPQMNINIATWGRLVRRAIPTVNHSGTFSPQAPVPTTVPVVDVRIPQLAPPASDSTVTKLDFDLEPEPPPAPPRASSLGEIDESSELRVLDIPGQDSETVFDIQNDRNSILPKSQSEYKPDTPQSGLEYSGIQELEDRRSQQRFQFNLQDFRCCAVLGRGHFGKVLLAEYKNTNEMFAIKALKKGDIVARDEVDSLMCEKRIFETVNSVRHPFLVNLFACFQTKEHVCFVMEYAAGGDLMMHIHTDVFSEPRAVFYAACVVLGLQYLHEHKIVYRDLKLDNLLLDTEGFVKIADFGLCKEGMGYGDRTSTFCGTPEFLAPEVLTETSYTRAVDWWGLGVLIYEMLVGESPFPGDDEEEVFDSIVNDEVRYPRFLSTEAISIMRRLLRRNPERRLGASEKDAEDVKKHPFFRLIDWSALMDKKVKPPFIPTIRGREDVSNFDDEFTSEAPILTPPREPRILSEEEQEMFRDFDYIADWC
Assay [20] concerns the target T3, Mitogen-activated protein kinase 12 (Homo sapiens) (UniProt P53778).
T3 sequence (whole entry): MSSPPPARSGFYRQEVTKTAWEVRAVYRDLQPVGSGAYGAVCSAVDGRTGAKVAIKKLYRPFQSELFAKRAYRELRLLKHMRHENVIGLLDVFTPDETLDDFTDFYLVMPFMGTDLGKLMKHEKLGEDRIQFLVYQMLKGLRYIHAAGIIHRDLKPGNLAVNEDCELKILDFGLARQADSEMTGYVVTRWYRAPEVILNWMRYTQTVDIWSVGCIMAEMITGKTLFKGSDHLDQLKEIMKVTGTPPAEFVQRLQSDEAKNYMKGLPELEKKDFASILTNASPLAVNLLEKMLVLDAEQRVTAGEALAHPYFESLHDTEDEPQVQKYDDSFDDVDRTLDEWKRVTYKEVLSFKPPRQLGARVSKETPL
In words: Inhibition of human SAPK3 at 1 uM relative to control; values are per cent of control.

For four compounds, residual activity and IC50 results are on record in ChEMBL document CHEMBL1139192, “Novel bis(indolyl)maleimide pyridinophanes that are potent, selective inhibitors of glycogen synthase kinase-3” (Bioorg Med Chem Lett, 2007).

Hepatocyte growth factor receptor (Homo sapiens), sequence (P08581 whole entry): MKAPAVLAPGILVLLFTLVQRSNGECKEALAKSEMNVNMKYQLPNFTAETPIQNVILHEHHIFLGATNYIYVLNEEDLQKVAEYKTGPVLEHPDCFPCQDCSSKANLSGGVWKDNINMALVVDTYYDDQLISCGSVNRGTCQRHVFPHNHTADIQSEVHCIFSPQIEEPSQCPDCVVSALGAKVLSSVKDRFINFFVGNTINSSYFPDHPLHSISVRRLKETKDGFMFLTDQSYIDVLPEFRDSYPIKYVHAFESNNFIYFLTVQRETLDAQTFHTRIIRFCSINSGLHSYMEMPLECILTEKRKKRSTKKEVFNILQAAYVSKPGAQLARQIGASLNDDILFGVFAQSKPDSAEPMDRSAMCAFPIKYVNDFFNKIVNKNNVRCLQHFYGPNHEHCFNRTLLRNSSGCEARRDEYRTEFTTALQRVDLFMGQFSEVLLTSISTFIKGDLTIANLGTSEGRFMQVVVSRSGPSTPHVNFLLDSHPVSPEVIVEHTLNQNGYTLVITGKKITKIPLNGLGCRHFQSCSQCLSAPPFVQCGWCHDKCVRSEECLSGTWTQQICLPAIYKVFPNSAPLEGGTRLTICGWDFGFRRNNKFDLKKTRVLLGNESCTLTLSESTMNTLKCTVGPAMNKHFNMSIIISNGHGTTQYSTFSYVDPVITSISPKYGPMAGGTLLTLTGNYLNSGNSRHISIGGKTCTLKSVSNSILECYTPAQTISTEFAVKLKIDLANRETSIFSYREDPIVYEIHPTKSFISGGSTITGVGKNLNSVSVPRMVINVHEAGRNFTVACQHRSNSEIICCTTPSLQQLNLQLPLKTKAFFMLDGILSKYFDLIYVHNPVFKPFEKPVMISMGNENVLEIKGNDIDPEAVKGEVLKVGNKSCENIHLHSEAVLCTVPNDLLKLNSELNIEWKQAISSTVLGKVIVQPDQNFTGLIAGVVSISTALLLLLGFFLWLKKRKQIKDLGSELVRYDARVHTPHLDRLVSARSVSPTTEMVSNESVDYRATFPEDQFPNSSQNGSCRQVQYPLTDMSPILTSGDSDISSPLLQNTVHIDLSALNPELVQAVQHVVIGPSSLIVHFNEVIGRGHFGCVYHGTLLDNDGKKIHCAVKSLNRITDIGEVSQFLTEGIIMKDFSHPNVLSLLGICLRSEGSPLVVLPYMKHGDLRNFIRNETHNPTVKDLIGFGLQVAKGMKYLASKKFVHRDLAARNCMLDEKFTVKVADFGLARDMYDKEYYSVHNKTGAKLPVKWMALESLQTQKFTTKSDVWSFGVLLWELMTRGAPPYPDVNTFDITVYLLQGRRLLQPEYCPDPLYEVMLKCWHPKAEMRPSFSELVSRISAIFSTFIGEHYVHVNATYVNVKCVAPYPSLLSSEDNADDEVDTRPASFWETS
RAC-beta serine/threonine-protein kinase (Homo sapiens), sequence (P31751 whole entry): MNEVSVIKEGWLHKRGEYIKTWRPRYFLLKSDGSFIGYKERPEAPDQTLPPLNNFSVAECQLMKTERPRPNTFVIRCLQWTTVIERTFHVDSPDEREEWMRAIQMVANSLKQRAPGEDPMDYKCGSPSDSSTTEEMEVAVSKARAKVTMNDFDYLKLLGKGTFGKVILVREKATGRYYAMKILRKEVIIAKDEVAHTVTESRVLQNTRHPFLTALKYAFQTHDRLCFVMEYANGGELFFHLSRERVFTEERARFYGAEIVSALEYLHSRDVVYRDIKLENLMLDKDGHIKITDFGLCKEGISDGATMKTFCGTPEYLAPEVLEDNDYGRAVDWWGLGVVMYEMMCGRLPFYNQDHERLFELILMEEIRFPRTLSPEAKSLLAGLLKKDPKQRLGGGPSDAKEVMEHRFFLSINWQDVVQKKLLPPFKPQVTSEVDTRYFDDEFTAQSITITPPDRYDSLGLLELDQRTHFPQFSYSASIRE
Glycogen synthase kinase-3 beta, sequence (P49841 whole entry): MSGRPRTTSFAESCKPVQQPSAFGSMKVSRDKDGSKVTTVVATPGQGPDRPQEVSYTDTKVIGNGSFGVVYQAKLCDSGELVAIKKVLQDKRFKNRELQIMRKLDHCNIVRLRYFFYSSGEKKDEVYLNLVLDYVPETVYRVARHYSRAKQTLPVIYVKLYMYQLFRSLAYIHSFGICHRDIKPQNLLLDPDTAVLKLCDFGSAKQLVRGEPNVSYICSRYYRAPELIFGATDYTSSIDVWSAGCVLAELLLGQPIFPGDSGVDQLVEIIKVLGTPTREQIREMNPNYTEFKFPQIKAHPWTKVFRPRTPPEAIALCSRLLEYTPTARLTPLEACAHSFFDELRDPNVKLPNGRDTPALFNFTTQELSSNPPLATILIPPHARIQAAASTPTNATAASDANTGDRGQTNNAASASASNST

Regarding `CN(C)c1nc2ccc1CCCn1cc(c3ccccc31)C1=C(C(=O)NC1=O)c1cn(c3ccccc13)CC2`, the residual activity came to 94% in the assay listed under Homo sapiens [1]; 103% in assay [2]; 100% in assay [3]; 101% in assay [4]; 95% in the assay filed under Mus musculus; 109% in assay [5]. Further, the residual activity was found to be 107% in assay [6]; 36% in assay [7]; 37% in assay [8]; 95% in assay [9]; 121% in [10]; 81% in assay [11]. For the same compound, the residual activity in assay [13] came out at 88%; in assay [14] it was 86%; in assay [15] it was 39%; in the assay listed under Homo sapiens [16], 94%; in [17], 4%; in assay [18], 75%. The residual activity turned out to be 106% in [19] and 78% in assay [20]. In addition, the IC50 in [12] was 3 nM.

With `O=C1NC(=O)C2=C1c1cn(c3ccccc13)CCCc1cc(nc(N3CCCC3)c1)CCCn1cc2c2ccccc21`, the residual activity in the assay listed under Homo sapiens [1] came out at 112%; in assay [2], 58%; in assay [3], 77%; in assay [4], 83%; in the assay listed under Mus musculus it was 103%; in assay [5], 111%. In addition, the residual activity in assay [6] is 126%; in assay [7], 38%; in assay [8], 5%; in assay [9] it was 125%; in assay [10], 129%; in assay [11], 97%. For the same compound, the residual activity in assay [13] amounted to 97%; in assay [14], 104%; in assay [15], 15%; in the assay listed under Homo sapiens [16] it was 96%; in assay [17], 4%; in assay [18] it was 114%. Also, the residual activity in assay [19] worked out at 110%; in assay [20] it was 103%. In addition, in assay [12], the IC50 was found to be 11 nM.

On to `CN(C)c1cc2cc(n1)CCCn1cc(c3ccccc31)C1=C(C(=O)NC1=O)c1cn(c3ccccc13)CCC2`, for which the residual activity in the assay filed under Homo sapiens [1] is 114%; in assay [2], 55%; in [3] it was 79%; in assay [4], 92%; in the assay listed under Mus musculus, 95%; in assay [5], 111%. Also, the residual activity amounted to 119% in [6]; 58% in assay [7]; 7% in assay [8]; 133% in assay [9]; 132% in assay [10]; 105% in assay [11]. Besides, the residual activity was 78% in assay [13]; 118% in [14]; 15% in assay [15]; 100% in the assay filed under Homo sapiens [16]; 3% in assay [17]; 84% in [18]. The residual activity amounted to 113% in assay [19] and 115% in [20]. For the same compound, in assay [12], the half-maximal inhibitory concentration (IC50) came out at 7 nM.

For the compound `O=C1NC(=O)C2=C1c1cn(c3ccccc13)CCCc1ccc(c(N3CCCC3)n1)CCCn1cc2c2ccccc21`, the residual activity turned out to be 106% in the assay filed under Homo sapiens [1]; 74% in assay [2]; 103% in assay [3]; 91% in [4]; 99% in the assay filed under Mus musculus; 106% in assay [5]. Further, the residual activity in assay [6] came out at 113%; in [7], 104%; in assay [8], 67%; in assay [9] it was 129%; in [10], 132%; in assay [11], 113%. For the same compound, the residual activity came out at 85% in assay [13]; 102% in [14]; 85% in [15]; 101% in the assay filed under Homo sapiens [16]; 9% in assay [17]; 117% in [18]. In addition, the residual activity in assay [19] was 126%; in assay [20], 114%. Moreover, the IC50 in assay [12] is 30 nM.
